Target: JMJD2C (Homo sapiens (Human), UniProt Q9H3R0)
Experiment: JMJD2C TR-FRET enzyme inhibition assay
Type: biochemical
Conditions: H3K9me3-biotin peptide
Text: This assay determines the ability of a test compound to inhibit Jarid1A, Jarid1B, and JMJD2C demethylase activity. Baculovirus expressed Jarid1A (GenBank Accession # NM_001042603, AA1-1090) was purchased from BPS Bioscience (Cat #50110). Baculovirus expressed Jarid1B (GenBank Accession # NM_006618, AA 2-751) was purchased from BPS Bioscience (Cat #50121) or custom made by MolecularThroughput. Baculovirus-expressed JMJD2C (GenBank Accession # BC143571, AA 2-372) was purchased from BPS Bioscience (Cat #50105).
The ability of test compounds to inhibit the activity of JMJD2C was determined in 384-well plate format under the following reaction conditions: 0.3 nM JMJD2C, 300 nM H3K9me3-biotin labeled peptide (Anaspec cat #64360), 2 μM alpha-ketoglutaric acid in assay buffer of 50 mM HEPES, pH7.3, 0.005% Brij35, 0.5 mM TCEP, 0.2 mg/ml BSA, 50 μM sodium L-ascorbate, and 2 μM ammonium iron(II) sulfate. Reaction product was determined quantitatively by TR-FRET after the addition of detection reagent Phycolink Streptavidin-allophycocyanin (Prozyme) and Europium-anti-di-methylated histone H3 lysine 9 (H3K9me2) antibody (PerkinElmer) in the presence of 5 mM EDTA in LANCE detection buffer (PerkinElmer) at a final concentration of 50 nM and 1 nM, respectively.
The assay reaction was initiated by the following: 2 μl of the mixture of 900 nM H3K9me3-biotin labeled peptide and 6 μM alpha-ketoglutaric acid with 2 μl of 11-point serial diluted inhibitor in 3% DMSO were added to each well of the plate, followed by the addition of 2 μl of 0.9 nM JMJD2C to initiate the reaction. The reaction mixture was incubated at room temperature for 30 min, and terminated by the addition of 6 μl of 5 mM EDTA in LANCE detection buffer containing 100 nM Phycolink Streptavidin-allophycocyanin and 2 nM Europium-anti-H3K9me2 antibody. Plates were read by EnVisionMultilabel Reader in TR-FRET mode (excitation at 320 nm, emission at 615 nm and 665 nm) after 1 hr incubation at rt. A ratio was calculated (665/615) for each well and fitted to determine inhibition constant (IC50).

Sequence of JMJD2C (Q9H3R0 2-372): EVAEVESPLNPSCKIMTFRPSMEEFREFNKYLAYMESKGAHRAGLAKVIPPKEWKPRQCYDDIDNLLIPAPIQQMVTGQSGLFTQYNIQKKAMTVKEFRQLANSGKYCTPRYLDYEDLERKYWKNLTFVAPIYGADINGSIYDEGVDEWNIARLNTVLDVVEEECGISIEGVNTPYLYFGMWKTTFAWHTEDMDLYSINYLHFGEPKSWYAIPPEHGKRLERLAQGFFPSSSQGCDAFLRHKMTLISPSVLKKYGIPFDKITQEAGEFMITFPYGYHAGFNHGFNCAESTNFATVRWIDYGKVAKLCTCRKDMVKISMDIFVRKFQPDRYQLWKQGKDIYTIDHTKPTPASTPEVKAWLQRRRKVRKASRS

Substance	IC50
3-{[(7-fluoro-3,4-dihydro-2H-chromen-4-yl)methyl]- amino}pyridine-4-carboxylic acid [Example 65]	< 0.1 µM
3-{[(6-chloro-1-hydroxy-1,2,3,4-tetrahydronaphthalen-1- yl)methyl]amino}pyridine-4-carboxylic acid [Example 67]	0.1 to 1 µM
3-{[(6-chloro-1,2,3,4-tetrahydronaphthalen-1-yl)methyl]- amino}pyridine-4-carboxylic acid [Example 68]	0.1 to 1 µM
